Measurements as given in patent publication US5827845A, “Cephalosporin derivative” (priority 1993, dated 1998).

Experiments:
[1] = system: Enterobacter cloacae G-0008; assay: minimum growth inhibitory concentration, serial dilution method; type: cell-based; conditions: 35° C., 18-20 hours; for MIC: G0008, sodium salts, read-out: Minimum growth inhibition concentrations (MIC)
Protocol: (§1) The determination of MIC. was conducted by inoculating the test microorganism to an incubation medium N for sensitive disc (a product of Nissui Seiyaku Co., Japan), effecting the incubation at 35° C. for 18-20 hours and then estimating the growth of the bacteria. The compounds tested were the sodium salts of Compound A to Compound F indicated below:
(§2) For the comparison purpose, the values similarly determined of MIC. ([…]) of ME1206 compound (sodium salt), Cefdinir (sodium salt) (abbreviated as CFDN) and Cefixime (sodium salt) (abbreviated as CFIX) are also shown in Table 1.

[2] = system: Enterococcus faecalis W-73; assay: as above; type: cell-based; conditions: sodium salts, 35° C., 18-20 hours; for MIC: Enterococcus faecalis, W73, Enterococcus faecalis W-73, read-out: Minimum growth inhibition concentrations (MIC); for Minimum growth inhibition concentrations (MIC): Enterococcus faecalis W-73
Protocol: as §1, §2

[3] = system: Enterococcus hirae ATCC 8043; assay: as above; type: cell-based; conditions: sodium salts, 35° C., 18-20 hours; for MIC: Enterococcus hirae, ATCC8043, Enterococcus hirae ATCC 8043, read-out: Minimum growth inhibition concentrations (MIC)
Protocol: as §1, §2

[4] = system: Escherichia coli GN 206; assay: as above; type: cell-based; conditions: sodium salts, 35° C., 18-20 hours; for MIC: Escherichia coli, GN206, Escherichia coli GN 206, read-out: Minimum growth inhibition concentrations (MIC)
Protocol: as §1, §2

[5] = system: Morganella morganii 1510; assay: as above; type: cell-based; conditions: sodium salts, 35° C., 18-20 hours; for MIC: Morganella morganii, 1510, Morganella morganii 1510, read-out: Minimum growth inhibition concentrations (MIC)
Protocol: as §1, §2

[6] = system: Serratia marcescens No. 1; assay: as above; type: cell-based; conditions: sodium salts, 35° C., 18-20 hours; for MIC: read-out: Minimum growth inhibition concentrations (MIC)
Protocol: as §1, §2

[7] = system: Staphylococcus aureus 209P JC-1; assay: as above; type: cell-based; conditions: S. aureus 209P JC-1, sodium salts, 35° C., 18-20 hours; for MIC: Staphylococcus aureus, 209P, read-out: Minimum growth inhibition concentrations (MIC)
Protocol: as §1, §2

[8] = system: Staphylococcus aureus M126*; assay: as above; type: cell-based; conditions: S. aureus M126, methicillin-resistant (MRSA), sodium salts, 35° C., 18-20 hours; for MIC: Staphylococcus aureus, read-out: Minimum growth inhibition concentrations (MIC)
Protocol: as §1, §2

[9] = system: Staphylococcus aureus M133*; assay: as above; type: cell-based; conditions: S. aureus M133, methicillin-resistant (MRSA), sodium salts, 35° C., 18-20 hours; for MIC: Staphylococcus aureus, MRSA, read-out: Minimum growth inhibition concentrations (MIC)
Protocol: as §1, §2

[10] = blood concentration pharmacokinetics after subcutaneous injection in mice; type: in vivo, mice (Jcl;ICR strain); conditions: for concentration in blood (in words): injected subcutaneously, mice; for half-life / AUC: mouse, serum, sc, 0.5 mg; for AUC: read-out: AUC (area under the plasma concentration-time curve)
Protocol: The test procedure used was as follows: Thus, to mice of Jcl;ICR strain (4 week-aged, male) each was administered subcutaneously an aqueous solution containing 2.5 mg/ml of a test compound dissolved in distilled water sterilized for injections, in such a way that 0.2 ml of said aqueous solution (corresponding to a dosage of the test compound of 0.5 mg per mouse) was injected to one mouse. At the time-points of 5, 15, 30, 60 and 120 minutes after the administration, the blood samples were collected from the armpit of mouse. The blood samples so collected were each allowed to stand for about 2 hours at room temperature and then centrifuged for 10 minutes in a centrifugal separator to recover the serum. The serum obtained was mixed well with an equal volume of methanol added thereto, and the resulting mixture was centrifuged at 12,000 rpm. for 3 minutes. The supernatant obtained was passed through a filter (Sumplep LCR-13-LH) to obtain the serum sample to be assayed by a high performance liquid chromatography (HPLC). This serum sample was assayed by HPLC to measure quantitatively the concentration of the test compound in the serum.
For each test compound, its half-life value in blood and its AUC (Area under the plasma concentration-time curve),which are the pharmacokinetic parameters, were evaluated according to the method of Gauss-Newton.
For the comparison purpose, the ME1206 compound was also tested in the same manner as above.

[11] = sodium salt, subcutaneous, 0.5 mg per mouse, HPLC of serum

| MIC [1] | MIC [2] | MIC [3] | MIC [4] | MIC [5] | MIC [6] | MIC [7] | MIC [8] | MIC [9] | half-life [10, 11] | AUC [10, 11] | SMILES | concentration in blood (in words) [10] | also measured |
| --- | --- | --- | --- | --- | --- | --- | --- | --- | --- | --- | --- | --- | --- |
| 6.25 µg/mL | 25 µg/mL | 50 µg/mL | 25 µg/mL | 25 µg/mL | 25 µg/mL | 0.2 µg/mL | > 100 µg/mL | 6.25 µg/mL | – | – | C=CC1=C(C(=O)O)N2C(=O)[C@@H](NC(=O)/C(=N\O)c3csc(N)n3)[C@H]2SC1 [CFDN, Cefdinir, reference compound] | – | – |
| 0.78 µg/mL | > 100 µg/mL | > 100 µg/mL | 50 µg/mL | 50 µg/mL | 0.78 µg/mL | 12.5 µg/mL | > 100 µg/mL | 100 µg/mL | – | – | C=CC1=C(C(=O)O)N2C(=O)[C@@H](NC(=O)/C(=N\OCC(=O)O)c3csc(N)n3)[C@H]2SC1 [CFIX, Cefixime, reference compound] | – | – |
| 1.56 µg/mL | 6.25 µg/mL | 12.5 µg/mL | 1.56 µg/mL | 12.5 µg/mL | 1.56 µg/mL | 0.1 µg/mL | 25 µg/mL | 6.25 µg/mL | 1.1 h | 211 µg·h/mL | Nc1nc(C(=NO)C(=O)NC2C(=O)N3C(C(=O)O)=C(C=Cc4scnc4Cl)CSC23)cs1 (stereo not drawn) [Compound A, 7-[2-Hydroxyimino-2-(2-aminothiazol-4-yl)acet-amido]-3-[2-(4-chlorothiazol-5-yl)vinyl]-3-cephem-4-carboxylic acid (syn-isomer, cis-isomer)] | capable of maintaining a high concentration in blood | – |
| 1.56 µg/mL | 12.5 µg/mL | 6.25 µg/mL | 1.56 µg/mL | 1.56 µg/mL | 1.56 µg/mL | 0.39 µg/mL | 25 µg/mL | 6.25 µg/mL | 0.7 h | 149 µg·h/mL | Nc1nc(C(=NO)C(=O)NC2C(=O)N3C(C(=O)O)=C(C=Cc4scnc4C(F)(F)F)CSC23)cs1 (stereo not drawn) [Compound B, 7-[2-Hydroxyimino-2-(2-aminothiazol-4-yl)acet-amido]-3-[2-(4-trifluoromethylthiazol-5-yl)vinyl]-3-cephem-4-carboxylic acid (syn-isomer, cis-isomer)] | capable of maintaining a high concentration in blood | – |
| 0.78 µg/mL | 12.5 µg/mL | 6.25 µg/mL | 3.13 µg/mL | 1.56 µg/mL | 1.56 µg/mL | 0.2 µg/mL | 25 µg/mL | 6.25 µg/mL | 1.4 h | 249 µg·h/mL | Cc1ncsc1C=CC1=C(C(=O)O)N2C(=O)C(NC(=O)C(=NO)c3csc(N)n3)C2SC1 (stereo not drawn) [Compound C, 7-[2-Hydroxyimino-2-(2-aminothiazol-4-yl)acet-amido]-3-[2-(4-methylthiazol-5-yl)vinyl]-3-cephem-4-carboxylic acid (syn-isomer, cis-isomer)] | capable of maintaining a high concentration in blood | AUC (area under the plasma concentration-time curve) [10, 11]: 315.5 µg·h/mL; Half-life value in blood [10, 11]: 1.7 h |
| 0.78 µg/mL | – | 12.5 µg/mL | 1.56 µg/mL | 12.5 µg/mL | 0.78 µg/mL | 0.1 µg/mL | 25 µg/mL | 3.13 µg/mL | – | – | Nc1nc(C(=NO)C(=O)NC2C(=O)N3C(C(=O)O)=C(C=Cc4cncs4)CSC23)cs1 (stereo not drawn) [Compound D, 7-[2-Hydroxyimino-2-(2-aminothiazol-4-yl)acet-amido]-3-[2-(thiazol-5-yl)vinyl]-3-cephem-4-carboxylic acid(syn-isomer, cis-isomer)] | capable of maintaining a high concentration in blood | Minimum growth inhibition concentrations (MIC) [2]: 1.56 µg/mL |
| – | – | – | – | – | – | – | – | – | 1.1 h | 253 µg·h/mL | Nc1nc(C(=NO)C(=O)NC2C(=O)N3C(C(=O)O)=C(C=Cc4cncs4)CSC23)cs1 (stereo not drawn) [Compound E, 7-[2-Hydroxyimino-2-(2-aminothiazol-4-yl)acet-amido]-3-[2-(thiazol-5-yl)vinyl]-3-cephem-4-carboxylic acid (syn-isomer, trans-isomer)] | capable of maintaining a high concentration in blood | Minimum growth inhibition concentrations (MIC) ([1]; sodium salts): 0.78 µg/mL; Minimum growth inhibition concentrations (MIC) [2]: 3.13 µg/mL; Minimum growth inhibition concentrations (MIC) ([3]; Enterococcus hirae ATCC 8043): 25 µg/mL; Minimum growth inhibition concentrations (MIC) ([4]; Escherichia coli GN 206): 0.78 µg/mL; Minimum growth inhibition concentrations (MIC) ([5]; Morganella morganii 1510): 6.25 µg/mL; Minimum growth inhibition concentrations (MIC) [6]: 0.78 µg/mL; Minimum growth inhibition concentrations (MIC) [7]: 0.20 µg/mL; Minimum growth inhibition concentrations (MIC) [8]: 25 µg/mL; Minimum growth inhibition concentrations (MIC) [9]: 6.25 µg/mL |
| 1.56 µg/mL | 25 µg/mL | 25 µg/mL | 6.25 µg/mL | 25 µg/mL | 3.13 µg/mL | 0.39 µg/mL | 50 µg/mL | 3.13 µg/mL | 0.9 h | 163 µg·h/mL | Cc1ncsc1C=CC1=C(C(=O)O)N2C(=O)C(NC(=O)C(=NO)c3nsc(N)n3)C2SC1 (stereo not drawn) [Compound F, 7-[2-Hydroxyimino-2-(5-amino-1,2,4-thiadiazol-3-yl)acetamido]-3-[2-(4-methylthiazol-5-yl)vinyl]-3-cephem-4-carboxylic acid (syn-isomer, cis-isomer)] | capable of maintaining a high concentration in blood | – |
| 1.56 µg/mL | 100 µg/mL | 50 µg/mL | 0.78 µg/mL | 25 µg/mL | 0.39 µg/mL | 0.39 µg/mL | 100 µg/mL | 25 µg/mL | 1.1 h | 184 µg·h/mL | CON=C(C(=O)NC1C(=O)N2C(C(=O)O)=C(C=Cc3scnc3C)CSC12)c1csc(N)n1 (stereo not drawn) [ME1206, 7-[2-methoxyimino-2-(2-aminothiazol-4-yl)acetamido]-3-[2-(4-methylthiazol-5-yl)vinyl]-3-cephem-4-carboxylic acid (syn-isomer, cis-isomer), reference compound] | – | – |
